Several values for one entry are separate records, joined by “and”; a condition that tells them apart may be missing. Equal values may be shown once.
Columns and labels:
BT-12 AT/RT cells = assay: Confluency assay (IncuCyte ZOOM), BT-12; assay type: cell-based, human; details: increasing concentrations starting at 31.25nM, 48 hours, p-value=0.001
Description: (§1) For further evaluation of the effect of the PLK4 inhibitor over tumor cell proliferation, confluency was measured over a 48 hour period. MON, BT-12, G401 and DAOY cells were plated in 96-well plates with a density of 6 x 10^4 per well. […] Confluency was monitored for 48 hours by taking phase contrast images every 2 hours and measured using an IncuCyte ZOOM system (Essen BioScience, USA). Experiments were performed in triplicates.

[1] = tested on: BT-12 AT/RT orthotopic xenografts; assay: Intracranial AT/RT xenograft tumors; assay type: in vivo, athymic mice
Description: Six-week-old female athymic mice (rnu/rnu genotype, BALB/c background) were purchased from Envigo (Harlan) and housed under aseptic conditions, which included filtered air and sterilized food, water, bedding, and cages. The Northwestern University Institutional Animal Care and Use Committee approved all animal protocols. The BT-12 AT/RT cell line, which has high expression of PLK4 was modified to express luciferase and injected intracranially in nude mice as previously described. Each mouse was injected with a cell suspension (10,000 cells/3μL) into the right caudate putamen of the brain. […] Bioluminescence monitoring was performed twice a week throughout the course of the experiment for quantitative measurement of tumor growth and response to therapy. Kaplan-Meier survival analysis was performed to assess survival benefit within the treatment group as compared to controls. Differences between survival curves were calculated using a log-rank test. Brains were resected at 6 hours following completion of the treatment and placed in 4% paraformaldehyde for subsequent histological examination.

BT-12 cells = assay: Viability assay (Presto Blue), BT-12; assay type: cell-based; details: Homo sapiens, dose-response 1nM to 10μM
Description: (§2) Except DAOY and D283, all cell lines were plated with 2 x 10^3 cells per well 96-well and the absorbance was measured after 48 and 72 hours at drug concentrations of 5, 10, 50, 100, 200, 500nM, 1μM and 5μM.

DAOY cells = assay: Colony formation assay, DAOY; assay type: cell-based, human; details: 50nM
Description: For proliferation assay DAOY was plated with 5 x 10^4 cells per well and D283 was plated with 5 x 10^5 cells per well.

G401 RTK cells = assay: Confluency assay (IncuCyte ZOOM), G401; assay type: cell-based, human; details: increasing concentrations starting at 31.25nM, 48 hours, p-value=0.004
Description: as §1

MON rhabdoid cells [2] = assay: Immunofluorescence for gamma-tubulin (centriole number), MON; assay type: cell-based, human; details: 48 hours
Description: The cells were then blocked in blocking buffer (5% BSA (Jackson Immuno Research Laboratories Inc., USA) in PBST) for 1 hour at RT. The primary antibody ([…] 1:500, Sigma, USA) diluted in 1% BSA in PBST was then added and incubated at 4°C overnight. Then, the cells were washed with 1X PBS thrice. Secondary antibody (Anti-Rabbit IgG (H+L) F (ab’) 2, 1:500, Sigma, USA) diluted in 1% BSA in PBST was added and incubated at RT for 2 hours. Three time washes with 1X PBS were performed. Then, 1mL of DAPI (Thermo Fisher Scientific, USA) in PBS (0.5μl of DAPI in 10 ml PBS) was added to the cells and incubated for 10 min at RT. Finally, 3 time washes with 1X PBS were performed and slides were mounted using Mounting Medium (Thermo Fisher Scientific, USA).

[3] = tested on: PLK4 mRNA expression in MON rhabdoid cells; assay: qRT-PCR for PLK4 transcript in treated MON cells; assay type: cell-based, human; details: 10, 50, 100 and 500nM for 24, 48 and 72 hours
Description: The expression of PLK4 (Hs00179514_m1) in each cell line was verified by TaqMan GE assays (Thermo Fisher Scientific, USA) using the housekeeping gene GAPDH (Hs02758991_g1) as reference. Total RNA (2μg) was used to make cDNA using the Applied Biosystems High Capacity RNA-to-cDNA kit (Thermo Fisher Scientific). Reactions were performed in triplicate with adequate positive and negative controls. The normalized expression levels were calculated by the ΔΔCt method using the housekeeping gene and a pool of all samples as calibrator.

[4] = Brain to plasma ratio (B:P), LC-MS/MS; assay type: in vivo, male CD-1 mice; details: male, CD-1, mouse, po, 7.5 mg/kg, 4 hours post-dose
Description: Male CD-1 mice weighing between 20 and 40 grams were fitted with jugular vein cannulas as appropriate and fasted overnight until 4 hours post-dose. Double route of administration (oral and IV) were tested, with a single dose concentration of 7.5mg/kg. Plasma and brain were sampled at 6 time-points, starting at 30 minutes (n=3 animals/time-point). Brain was extracted at the same plasma sampling time-point from each animal. Both plasma and brain samples were deproteinated. Brain samples were weighted, homogenized and CFI-400945 was extracted. […] The dosing solution was normalized in a matched matrix (mouse plasma) and analyzed in triplicate in the same analytical batch as the incurred samples (Absorption Systems - Exton, PA).

MON rhabdoid cells [5] = assay: Flow cytometry cell cycle analysis (polyploidy), MON; assay type: cell-based, human; details: 100nM for 3-72 hours
Description: Cell cycle evaluation was performed by staining the cells with PI (Thermo Fisher Scientific, USA) according to manufacturer’s instructions. […] Data was analyzed using Modfit LT from Verity Software House. Experiments were performed in triplicates.

RT and MB cell lines = assay: Clonogenic recovery assay; assay type: cell-based, human; details: 6 days 100nM, then 12 days 0.1% DMSO
Description: For each cell line, 200 cells were seeded into 6-well tissue culture plates. […] On the 7th day, cell were washed with 1X PBS twice and then incubated with 0.1% DMSO for an additional 12 days. […] The number of colonies was counted. All experiments were performed in triplicates.

[6] = tested on: MON, G401, BT-12 and BT-16 rhabdoid cell lines; assay: Flow cytometry apoptosis (Annexin V / PI); assay type: cell-based, human; details: G401, BT-12, BT-16, 100nM for 48 hours
Description: Live cells were stained with Annexin V as an indicator of early apoptosis and Propidium Iodide (PI - Thermo Fisher Scientific, USA) for detection of late apoptosis and necrosis, according to manufacturer’s instructions (Thermo Fisher Scientific, USA). Flow cytometric analysis was performed on a BD Fortessa instrument (BD Biosciences, USA) within an hour of staining. Data was analyzed using Modfit LT from Verity Software House. All experiments were performed in triplicates.

DDR2 = DDR2 (Homo sapiens, UniProt Q16832); assay: Kinase activity screening (SelectScreen), DDR2; assay type: biochemical
G401 cells = assay: Viability assay (Presto Blue), G401; assay type: cell-based; details: Homo sapiens, G-401, dose-response 1nM to 10μM
Description: as §2

[7] = H&E of xenografts, treated vs control, p-value<0.0001

Sequence of DDR2 (Q16832 22-855): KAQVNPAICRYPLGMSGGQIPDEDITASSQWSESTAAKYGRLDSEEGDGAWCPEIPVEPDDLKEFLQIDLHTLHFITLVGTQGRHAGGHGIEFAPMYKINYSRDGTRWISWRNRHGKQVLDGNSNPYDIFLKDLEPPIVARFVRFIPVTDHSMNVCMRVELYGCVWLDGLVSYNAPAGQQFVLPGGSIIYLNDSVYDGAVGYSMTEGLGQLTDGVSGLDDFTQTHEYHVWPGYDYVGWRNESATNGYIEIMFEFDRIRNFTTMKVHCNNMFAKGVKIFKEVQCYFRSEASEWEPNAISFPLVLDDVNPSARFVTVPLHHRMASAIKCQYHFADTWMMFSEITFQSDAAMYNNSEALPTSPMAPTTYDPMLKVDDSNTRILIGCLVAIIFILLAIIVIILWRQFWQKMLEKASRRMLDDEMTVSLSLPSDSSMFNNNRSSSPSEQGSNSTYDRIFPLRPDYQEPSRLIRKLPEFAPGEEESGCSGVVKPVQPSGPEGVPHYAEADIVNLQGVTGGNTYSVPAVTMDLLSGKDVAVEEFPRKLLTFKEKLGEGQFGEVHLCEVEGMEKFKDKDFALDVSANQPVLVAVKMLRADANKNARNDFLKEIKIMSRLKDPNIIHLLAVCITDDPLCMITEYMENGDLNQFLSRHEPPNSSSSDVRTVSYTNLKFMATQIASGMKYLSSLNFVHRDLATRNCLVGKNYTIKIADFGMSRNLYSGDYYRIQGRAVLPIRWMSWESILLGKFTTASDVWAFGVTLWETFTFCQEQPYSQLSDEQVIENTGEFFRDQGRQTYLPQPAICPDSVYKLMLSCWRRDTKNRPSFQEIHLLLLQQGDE

## COc1ccc2c(c1)[C@]1(C[C@H]1c1ccc3c(/C=C/c4ccc(CN5C[C@@H](C)O[C@@H](C)C5)cc4)n[nH]c3c1)C(=O)N2 [CFI-400945]
BT-12 AT/RT cells
  FC, delay in reaching confluency: 1.89
[1]; 7.5 mg/kg/day oral for 21 days, p=0.0146
  growth of intracranial AT/RT tumors (luminescence): significantly reduced
[1]; 7.5 mg/kg/day oral for 21 days, p=0.0477, log-rank test
  survival of treated animals: extended
[1]; [7]
  nuclear area FC in tumor cells: 21.67
  nuclear diameter FC in tumor cells: 2.69
BT-12 cells
  IC50: 3.73 µM
DAOY cells
  colony formation: Complete inhibition
G401 RTK cells
  FC, delay in reaching confluency: 1.78
MON rhabdoid cells [2]; 100nM
  centrioles' number: slight increase
MON rhabdoid cells [2]; 500nM
  centrioles' number: significant depletion
[3]
  PLK4 expression (qPCR) vs control: time dependent decrease
[4]; brain / plasma, fasted male CD-1 mice, triplicates, read-out: Average Raw B:P Ratio
  Kp at 4 h: ~0.08
[4]; plasma, plasma density assumed 1 g/mL, individual mice #355, 356, 357, read-out: Plasma Conc.
  concentration at 4 h: 498 ng/g
MON rhabdoid cells [5]
  polyploidy (cell cycle analysis): time-dependent induction of polyploidy
RT and MB cell lines
  clonogenic recovery: none of the cell lines recovered their ability to generate colonies
[6]
  cell death (apoptosis, flow cytometry) vs control: significantly higher percentage of cells undergoing cell death
DDR2; 10-point titration
  IC50: 0.315 µM
DDR2; DDR2, LanthaScreen Binding
  % Inhibition: 9% and 18%
G401 cells
  IC50: 3.79 µM

Source: article PMC5762315, “Inhibition of polo-like kinase 4 (PLK4): a new therapeutic option for rhabdoid tumors and pediatric medulloblastoma” (Oncotarget, 2017)
